Molecular target: T1, human SSTR5 (Homo sapiens, UniProt P35346)
T1 construct: expressed in transfected cells
Experiment: Inositol phosphate accumulation assay (IP1 HTRF, antagonist mode)
Type: cell-based
Details: CHO-K1 cells co-expressing human SSTR5 with Gqi5, SST28 agonist at concentration generating 90% of full activation
Outline: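 CHO-K1 cells stably co-expressing human SSTR5 and chimeric Gqi5 were pre-incubated with compound 15 minutes at 37° C, then stimulated with SST28 (30 nM as added, about EC90) for 90 minutes. IP1 read by HTRF (665/620 nm). % inhibition normalized to Max/Min controls; IC50 and maximal inhibition from 4-parameter fit.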

T1 sequence (P35346 whole entry): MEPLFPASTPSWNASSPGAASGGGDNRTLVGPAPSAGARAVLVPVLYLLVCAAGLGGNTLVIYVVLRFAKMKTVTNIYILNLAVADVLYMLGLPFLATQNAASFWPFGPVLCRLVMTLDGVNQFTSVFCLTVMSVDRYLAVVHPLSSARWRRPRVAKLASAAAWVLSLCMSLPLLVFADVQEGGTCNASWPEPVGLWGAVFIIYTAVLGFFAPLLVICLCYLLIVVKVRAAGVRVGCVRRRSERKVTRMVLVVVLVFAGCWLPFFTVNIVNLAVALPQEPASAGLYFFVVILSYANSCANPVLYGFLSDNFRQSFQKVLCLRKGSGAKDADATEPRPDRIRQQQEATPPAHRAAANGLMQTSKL

| IC50 [nM] | Structure (SMILES) |
| --- | --- |
| 100 to 1000 | CCOc1cc(C(=O)OC)c(C2CC2)cc1CN1CCC2(CC1)CN(c1ccc(C(=O)NCCO)cc1)C(=O)N2 [Example 75, methyl 2-cyclopropyl-5-ethoxy-4-((3-(4-((2-hydroxyethyl)carbamoyl)phenyl)-2-oxo-1,3,8-triazaspiro[4.5]decan-8-yl)methyl)benzoate] |
| 100 to 1000 | CCOc1cc(C(=O)OC)c(C2CC2)cc1CN1CCC2(CC1)CC(=O)N(c1ccc(C(=O)NCCOCCO)cc1)C2 [Example 26, methyl 2-cyclopropyl-5-ethoxy-4-((2-(4-((2-(2-hydroxyethoxy)ethyl)carbamoyl)phenyl)-3-oxo-2,8-diazaspiro[4.5]decan-8-yl)methyl)benzoate] |
| ≤ 100 | CCOc1cc(-c2ccc(F)cc2)c(C2CC2)cc1CN1CCC2(CC1)CN(c1ccc(C(=O)NCCCS(N)(=O)=O)cc1)C(=O)O2 [Example 64, 4-(8-((2-cyclopropyl-5-ethoxy-4′-fluoro-[1,1′-biphenyl]-4-yl)methyl)-2-oxo-1-oxa-3,8-diazaspiro[4.5]decan-3-yl)-N-(3-sulfamoylpropyl)benzamide] |
| 100 to 1000 | CCOc1cc(C(=O)OC)c(C2CC2)cc1CN1CCC2(CC1)CC(=O)N(c1ccc(C(=O)NCCC(=O)O)cc1)C2 [Example 25, 3-(4-(8-(5-cyclopropyl-2-ethoxy-4-(methoxycarbonyl)benzyl)-3-oxo-2,8-diazaspiro[4.5]decan-2-yl)benzamido)propanoic acid] |
| ≤ 100 | CCOc1cc(-c2ccc(F)cn2)c(C2CC2)cc1CN1CCC2(CC1)CN([C@H]1CC[C@](C)(C(=O)NCCCS(=O)(=O)O)CC1)C(=O)O2 [compound 91] |
| > 5000 | CCOc1cc(C(=O)OC)c(C2CC2)cc1CN1CCC2(CC1)CC(=O)N(c1ccc(C(=O)NCCCCS(=O)(=O)O)cc1)C2 [Example 31, 4-(4-(8-(5-cyclopropyl-2-ethoxy-4-(methoxycarbonyl)benzyl)-3-oxo-2,8-diazaspiro[4.5]decan-2-yl)benzamido)butane-1-sulfonic acid] |
| 100 to 1000 | CCOc1cc(C(=O)OC)c(C2CC2)cc1CN1CCC2(CC1)CC(=O)N(c1ccc(C(=O)NC[C@H](O)CO)cc1)C2 [Example 35, methyl (S)-2-cyclopropyl-4-((2-(4-((2,3-dihydroxypropyl)carbamoyl)phenyl)-3-oxo-2,8-diazaspiro[4.5]decan-8-yl)methyl)-5-ethoxybenzoate] |
| ≤ 100 | CCOc1cc(-c2ccc(F)cc2F)c(C2CC2)cc1CN1CCC2(CC1)CN(c1ccc(C(=O)NCCOCCO)cc1)C(=O)N2 [Example 72, 4-(8-((2-cyclopropyl-5-ethoxy-2′,4′-difluoro-[1,1′-biphenyl]-4-yl)methyl)-2-oxo-1,3,8-triazaspiro[4.5]decan-3-yl)-N-(2-(2-hydroxyethoxy)ethyl)benzamide] |
| > 5000 | CCOc1cc(C(=O)OC)c(C2CC2)cc1CN1CCC2(CC1)CC(=O)N(c1ccc(C(=O)NCCCO)cc1)C2 [Example 27, methyl 2-cyclopropyl-5-ethoxy-4-((2-(4-((3-hydroxypropyl)carbamoyl)phenyl)-3-oxo-2,8-diazaspiro[4.5]decan-8-yl)methyl)benzoate] |
| 1000 to 5000 | CCOc1cc(C(=O)OC)c(C2CC2)cc1CN1CCC2(CC1)CC(=O)N(c1ccc(CCCC(=O)NC(C)(C)C(=O)NCCN(C)C)cc1)C2 [Example 17, methyl 2-cyclopropyl-4-((2-(4-(4-((1-((2-(dimethylamino)ethyl)amino)-2-methyl-1-oxopropan-2-yl)amino)-4-oxobutyl)phenyl)-3-oxo-2.8-diazaspiro[4.5]decan-8-yl)methyl)-5-ethoxybenzoate] |
| ≤ 100 | CCOc1cc(-c2ccc(F)cc2)c(C2CC2)cc1CN1CCC2(CC1)CN(c1ccc(C(=O)NCCCNC(N)=O)cc1)C(=O)O2 [Example 62, 4-(8-((2-cyclopropyl-5-ethoxy-4′-fluoro-[1,1′-biphenyl]-4-yl)methyl)-2-oxo-1-oxa-3,8-diazaspiro[4.5]decan-3-yl)-N-(3-ureidopropyl)benzamide] |
| > 5000 | CCOc1cc(C(=O)OC)c(C2CC2)cc1CN1CCN(C(=O)Cc2ccc(C(=O)NC[C@H](O)[C@@H](O)[C@H](O)[C@H](O)CO)cc2)CC1 [Example 97, methyl 2-cyclopropyl-5-ethoxy-4-((4-(2-(4-(((2S,3R,4R,5R)-2,3,4,5,6-pentahydroxyhexyl)carbamoyl)phenyl)acetyl)piperazin-1-yl)methyl)benzoate] |
| 1000 to 5000 | CCOc1cc(C(=O)OC)c(C2CC2)cc1CN1CCC2(CC1)CC(=O)N(c1ccc(C(=O)N3CC(CO)(CO)C3)cc1)C2 [Example 42, methyl 4-((2-(4-(3,3-bis(hydroxymethyl)azetidine-1-carbonyl)phenyl)-3-oxo-2,8-diazaspiro[4.5]decan-8-yl)methyl)-2-cyclopropyl-5-ethoxybenzoate] |
| ≤ 100 | CCOc1cc(C(=O)OC)c(C2CC2)cc1CN1CCC2(CC1)CC(=O)N(c1ccc(C(=O)NCCO)cc1)C2 [Example 20, methyl 2-cyclopropyl-5-ethoxy-4-((2-(4-((2-hydroxyethyl)carbamoyl)phenyl)-3-oxo-2,8-diazaspiro[4.5]decan-8-yl)methyl)benzoate] |
| 100 to 1000 | CCOc1cc(C(=O)OC)c(C2CC2)cc1CN1CCC2(CC1)CC(=O)N(c1ccc(C(=O)NCCS(N)(=O)=O)cc1)C2 [Example 50, methyl 2-cyclopropyl-5-ethoxy-4-((3-oxo-2-(4-((2-sulfamoylethyl)carbamoyl)phenyl)-2,8-diazaspiro[4.5]decan-8-yl)methyl)benzoate] |
| 100 to 1000 | CCOc1cc(C(=O)OC)c(C2CC2)cc1CN1CCC2(CC1)CC(=O)N(c1ccc(C(=O)NCCOCCOCCO)cc1)C2 [Example 49, methyl 2-cyclopropyl-5-ethoxy-4-((2-(4-((2-(2-(2-hydroxyethoxy)ethoxy)ethyl)carbamoyl)phenyl)-3-oxo-2,8-diazaspiro[4.5]decan-8-yl)methyl)benzoate] |
| ≤ 100 | CCOc1cc(-c2ccc(F)cc2)c(C2CC2)cc1CN1CCC2(CC1)CN(c1ccc(C(=O)NCCOCCO)cc1)S(=O)(=O)N2 [compound 87, 4-(8-((2-cyclopropyl-5-ethoxy-4′-fluoro-[1,1′-biphenyl]-4-yl)methyl)-2,2-dioxido-2-thia-1,3,8-triazaspiro [4.5]decan-3-yl)-N-(2-(2-hydroxyethoxy)ethyl)benzamide] |
| 100 to 1000 | CCOc1cc(C(=O)OC)c(C2CC2)cc1CN1CCC2(CC1)CC(=O)N(c1ccc(C(=O)NCCCCP(=O)(O)O)cc1)C2 [Example 47, (4-(4-(8-(5-cyclopropyl-2-ethoxy-4-(methoxycarbonyl)benzyl)-3-oxo-2,8-diazaspiro[4.5]decan-2-yl)benzamido)butyl)phosphonic acid] |
| > 5000 | CCOc1cc(CN2CCC3(CC2)CN(c2ccc(C(=O)NCCS(=O)(=O)O)cc2)C(=O)O3)cc(OCC)c1-c1ccc(F)cc1 [Example 12, 2-(4-(8-((2,6-diethoxy-4′-fluoro-[1,1′-biphenyl]-4-yl)methyl)-2-oxo-1-oxa-3,8-diazaspiro[4.5]decan-3-yl)benzamido)ethane-1-sulfonic acid] |

| Structure (SMILES) | IC50 [nM] |
| --- | --- |
| CCOc1cc(C(=O)OC)c(C2CC2)cc1CN1CCN(C(=O)Oc2ccc(C(=O)N3CC(CNC[C@H](O)[C@@H](O)[C@H](O)[C@H](O)CO)C3)cc2)CC1 [Example 99, 4-(3-((((2S,3R,4R,5R)-2,3,4,5,6-pentahydroxyhexyl)amino)methyl)azetidine-1-carbonyl)phenyl 4-(5-cyclopropyl-2-ethoxy-4-(methoxycarbonyl)benzyl)piperazine-1-carboxylate] | 100 to 1000 |

Source: US20230113609A1, “SSTR5 ANTAGONISTS” (Kallyope, Inc., priority 2019, published 2023)
